The results in this text go back to patent publication US12064455B2, “Free fatty acids and methods of manufacture and use for treating coronavirus and other viral respiratory infections” (priority 2020, dated 2024).

One series has as its system RSV. It counts as cell-based, respiratory syncytial virus.
The next series has as its system MA-104. The experiment in a line: Toxicity controls, Example 8. The settings on record: Ethanol 70%, highest dilution with full (80-100%) cytotoxicity.
A further series concerns SARS-CoV-2. It counts as cell-based. The settings on record: Ethanol 35%.
Series [1] has as its system Influenza(H1N1)pdm09 virus. Description: Neutralization/virucidal assay, Example 8. It counts as cell-based, influenza A(H1N1)pdm09. To be noted: Ethanol 70%.
Another series relates to A549. Description: Toxicity controls, Example 8. The series is classed as cell-based. The settings on record: Ethanol 70%; Ad-5 test; highest dilution with full (80-100%) cytotoxicity.
Another series concerns HeLa. The experiment in a line: Toxicity controls, Example 8. The settings on record: Ethanol 70%; HRV-14 test; highest dilution with full (80-100%) cytotoxicity.
The subject of the next series is Ad-5. The series is classed as cell-based, Adenovirus Type 5.
The next series concerns PIV-3. It counts as cell-based, parainfluenza virus type 3.
In the next series the test system is HRV-14. It counts as cell-based, human rhinovirus.
The test system of a further series is hCoV-229E. Description: Neutralization/virucidal assay, Example 8.

Read-outs that look alike come from different tables or passages of the source. A value given as a limit tells only on which side of the number the result lay.

In the case of `CCO` [Ethanol], the LRV in the series with RSV is 2.0; in the series on SARS-CoV-2 (assay replicate 1), >3.6−; with SARS-CoV-2 (assay replicate 2), over 3.3; in series [1] (contact time 10-min, vs virus control) it was 4.0; with Ad-5, 3.4; with PIV-3, over 2.3. The same compound returned an LRV with hCoV-229E (Ethanol 70%, contact time 10-min, vs virus control) of over 2.0. The “Virus Titer” value is 1.0 log10 CCID50 of virus per 0.1 mL in the series with RSV; <0.7 Log10CCID50 of virus per 0.1 ml with SARS-CoV-2 (assay replicate 1); <0.7 Log10CCID50 of virus per 0.1 ml with SARS-CoV-2 (assay replicate 2); 3.0 log10 CCID50 of virus per 0.1 mL in series [1] (contact time 10-min at 22 ± 2° C.); 5.3 log10 CCID50 of virus per 0.1 mL in the series with Ad-5; 4.5 log10 CCID50 of virus per 0.1 mL in the series on HRV-14. Besides, the “Virus Titer” value in the series with hCoV-229E is on record as <0.7 log10 CCID50 of virus per 0.1 mL. Moreover, the Toxicity entry in the series on MA-104 (PIV-3 test), in the series with MA-104 (RSV test), with A549, in the series with Huh7, with HeLa and in the series on MDCK was “None” in each case.
